Experimental data: US9688653B2, “Ethoxyphenyl thienyl compounds and methods for the treatment of bacterial infections” (Duke University, priority 2013, dated 2017)

What was measured:
E. coli K1 strain UTI89 [1] = assay: microbe, parasite or virus in culture; details: read-out: K1 phage IC50; first round of synthetic analogues, n = 3
Text: The ability of the […] to bind to bacterial capsule, infect, and lyse E. coli UT189 was used as the primary assay to identify the effects of screened compounds on bacterial capsule formation. The phenotypic end-point assay measured the fluorescence generated by cellular processing of Alamar Blue as a direct indicator of cell viability. A total of […] compounds were screened using the primary assay. […] Hits were further evaluated using […] secondary assays for alternative measurement of compound-induced reduction in bacterial capsule formation (secondary assays 1 and 2) and specificity (secondary assays 3 and 4). Confirmed actives with an SI>5 were further investigated and subjected to chemical optimization, followed by secondary assay evaluation. Secondary assays more closely characterized the ability of the compounds to reduce bacterial capsule formation and can be used to examine the mechanism of action of the compounds. The combination of primary assay (to measure capsule reduction), counter assay (for general eukaryotic cell toxicity) and secondary assay (to measure reduction in capsule formation and specificity) were combined to allow a determination of probe efficacy, selectivity, and specificity.
A. Primary Assay: Screening for Inhibitors of Bacterial Capsule Biogenesis.
Primary assay: An end-point assay to measure the amount of K1 phage-induced bacterial cell lysis was employed to determine the compound effect on capsule biogenesis. K1 bacteriophage specifically binds the bacterial capsule during the initial stages of infection. Bacteria without capsule cannot be infected and lysed by the bacteriophage. […] A total of 338,740 compounds were screened at 100 μM in the primary screen Inhibition of phage lysis was calculated relative to the mean of the bacterial (positive) control on each microtiter plate. […] For calculation of S/B/Z value, and CV, the following formulae (in which SD stands for standard deviation) were used: S/B=mean signal/mean background; Z=1-3SD of sample+3SD of control mean of sample−mean of control; % CV=(SD mean signal/mean signal)×100.
IC50 values were calculated using a 4 parameter Levenburg-Marquardt algorithm, with the maximum and minimum locked at 0 and 100 respectively.
Primary assay: The primary assay was conducted in the 1,536 well plate format. Bacterial cultures of E. coli K1 strain UTI89 (cystitis isolate) and isogenic capsule mutant strains (as controls for phage infection) were grown and prepared at the screening center immediately prior to use. Overnight starting cultures of UTI89 were grown at 37° C., and inoculated into 1 liter of LB (starting OD600˜0.03), which was sufficient for screening 40 plates (including ˜10% waste) and ˜40,000 compounds as single points.
Control wells contained UTI89 (wt K1) with 0.5% DMSO as a simulated positive control; UTI89 with 0.5% DMSO and tetracycline for a negative growth control; and media plus vehicle control. 50 mL of LB Broth was inoculated with stock 150 μL E. coli UT189 and grown overnight at 37° C. The next day, cultures were diluted 1:75 in 1 L of LB Broth containing 0.5% DMSO. 3 μL of this culture was added to each plate well, and plates were incubated, inverted, at 37° C. for 2 hr. The K1F bacteriophage stock was diluted 1:8 in LB Broth containing 0.5% DMSO, and 1.5 μL of diluted phage (or media only) was added to the pre-plated test compound wells and appropriate control wells. The plates were centrifuged briefly, and then were incubated, inverted, at 37° C. for an additional 2 hr. Afterward, Alamar Blue reagent (Invitrogen, #DAL1100) was diluted 1:2 with LB broth and 1 μL was added to each plate well.

[2] = tested on: Bladder carcinoma 5637 cells; assay: Cytotoxicity counterscreen, CellTiter Glo, 72 hr; type: cell-based, human
Method: B. Counterscreen: Cytotoxicity Screening for Potential Inhibitors of Bacterial Capsule Biogenesis.
Purpose: This cell-based assay measures the cytotoxicity of compounds in bladder carcinoma 5637 cells using luminescent cell viability assay readout.
Cytotoxicity assay: The cytotoxicity assay was performed as described in Section 6: Appendix. Hit cytotoxicity and the 50% toxic concentration (CC50) was determined and compared to the IC50 to calculate the selectivity index.
Assay Description: Cytotoxicity: Dose response testing (dose range=300-0.58 μM) established the hit cytotoxicity data. Compounds were plated in 384-well microplates in a stacked dose response format using the same doses used in the efficacy dose response. Bladder carcinoma 5637 cells were added to the compounds, and 72 hr later cell viability was measured using CellTiter Glo (38). Hit cytotoxicity and the 50% toxic concentration (TC50) was determined and compared to the IC50 to calculate the therapeutic index. Test compounds are serially diluted in a plate to plate matrix or stacked plate matrix. All 320 compounds in a source plate are diluted together resulting in a 10 point dose response dilution series. It is visualized as a serial dilution series proceeding vertically through a stack of plates with the high dose plate on top and the low dose plate on the bottom.
Control Drug: Hyamine was used as a positive cytotoxic control. All wells contained 0.5% DMSO.
Preparation of Bladder carcinoma 5637 cells: Cells are harvested and resuspended to 80,000 cells per ml in Complete DMEM/F12®.
Endpoint Read: Following the three day incubation period, the assay plates were equilibrated to room temperature for 30 min and an equal volume (30 μL) of Cell Titer-Glo® reagent (Promega Inc.) is added to each well using a WellMate™ (Matrix, Hudson, N.H.) and plates are incubated for an additional 10 min at room temperature. At the end of the incubation, luminescence is measured using a Perkin Elmer Envision™ multi-label reader (PerkinElmer, Wellesley, Mass.) with an integration time of 0.1 s.
Cytotoxicity. Testing was performed essentially as previously described. Concentration-response testing was performed over a range 0.58-300 μM in a […] well plate format. Bladder carcinoma 5637 cells (ATCC HTB-9) were added to the compounds, and 72 hrs later cell viability was measured using CellTiter Glo (Promega). The 50% toxic concentration (TC50) was determined and compared to the IC50 to calculate the therapeutic index. Hyamine was used as a positive cytotoxic control. All wells contained 0.5% DMSO.

E. coli K1 strain UTI89 [3] = assay: Secondary assay 2: T7 phage-mediated lysis assay; type: cell-based, Escherichia coli; details: first round of synthetic analogues, n = 2; read-out: T7 phage IC50
Text: D. Secondary Assay 2: Screening for Inhibitors of Bacterial Capsule Biogenesis—T7 Lysis Inhibition
Purpose: This secondary assay measures the compound mechanistic specificity for inhibition of bacterial capsule formation and excludes inhibitors of phage replication using a different bacteriophage (T7). In this assay, an increase in phage-induced lysis correlates to a decrease in capsule formation.
Purpose: This secondary assay measures the compound mechanistic specificity for inhibition of bacterial capsule formation using a different bacterial phage (T7). In this assay, an increase in phage-induced lysis correlates to a decrease in capsule formation.
Assay Description: T7 phage-mediated lysis assay: This assay determined if the mechanism of action of the compound is inhibition of phage infectivity or replication. The T7 phage has a nearly identical genome to K1F, without encoding an endosialidase. Its cycle of replication is similar to that of K1F as well. However, T7 entry into E. coli is inhibited by K capsules. This secondary assay was conducted in the 96 well plate format. […] Compounds were added in quadruplicate to plates in a concentration dependent manner in the range of 100-0.39 μM, followed by addition of 100 μL of bacterial culture. 1% DMSO (final well concentration) was included. The plates were tape sealed and shaken vigorously for 1.5 hr. An initial OD600 reading was measured to identify compounds that cause growth retardation or bacterial killing in the absence of phage. Next, T7 phage (5 μL) was added to all of the test wells. The plates were resealed and shaken vigorously at 37° C., and measurements of OD600 for phage-mediated lysis were taken after 3 hr. True inhibitors of capsule yielded bacteria that were susceptible to T7 phage and lysed within 2 hr of the addition of phage. […] The positive control drug C7 (100 μM final well concentration) was used in this screen.
T7 phage counter assay. This secondary assay was performed as previously described and was used to distinguish compounds with phage inhibitory effects from true polysaccharide capsule inhibitors. […] Thus, the presence of a capsule inhibits T7-mediated lysis. In this assay, an increase in phage-induced lysis correlates to a decrease in capsule formation. True inhibitors of capsule yielded bacteria that were susceptible to T7 phage and lysed within 2 hr of the addition of phage. […] The positive control molecule C7 (100 μM final well concentration) was used in this screen.

Row | SMILES | IC50 (E. coli K1 strain UTI89 [1]) [µM] | IC50 [2] [µM] | IC50 (E. coli K1 strain UTI89 [3]) [µM]
1 | O=C(Nc1cc(-c2ccc(C(F)(F)F)cc2)sc1C(=O)O)c1cc2ccccc2o1 [compound 53470417] | > 100 | 72.1 | 7.17
2 | O=C(Nc1cc(-c2ccc(C(F)(F)F)cc2)sc1C(=O)O)c1cccc(F)c1 [compound 53470418] | > 100 | 35.1 | 12.8
3 | CC(C)c1ccc(-c2cc(NC(=O)c3ccc(Br)o3)c(C(=O)O)s2)cc1 [compound 53470420] | 3.08 | 50.4 | 1.25
4 | Cc1ccc(-c2cc(NC(=O)c3c(F)cccc3F)c(C(=O)O)s2)cc1 [compound 53470422] | 40.3 | 57.3 | 2.43
5 | Cc1ccc(-c2cc(NC(=O)c3ccc(Br)o3)c(C(=O)O)s2)cc1 [compound 53470423] | 15.7 | 50.7 | 1.01
6 | CC(C)(C)c1ccc(-c2cc(NC(=O)c3cc4ccccc4o3)c(C(=O)O)s2)cc1 [compound 53470424] | > 100 | 34.5 | 2.83
7 | CCOc1ccc(-c2cc(NC(=O)c3cc4ccccc4o3)c(C(=O)O)s2)cc1 [compound 53470427] | > 100 | 193 | 2.75
8 | O=C(Nc1cc(-c2ccc(C(F)(F)F)cc2)sc1C(=O)O)c1ccc(Br)s1 [compound 53470428] | > 50 | 38.5 | 14.1
9 | Cc1ccc(-c2cc(NC(=O)c3ccc(Br)s3)c(C(=O)O)s2)cc1 [compound 53470429] | > 50 | 64 | 10.7
10 | COc1ccc(-c2cc(NC(=O)c3c(F)cccc3F)c(C(=O)O)s2)cc1 [compound 53470430] | > 100 | 239 | 2.65
11 | CC(C)c1ccc(-c2cc(NC(=O)c3ccc(Br)s3)c(C(=O)O)s2)cc1 [compound 53470432] | > 100 | 33.1 | 2.75
12 | CC(C)(C)c1ccc(-c2cc(NC(=O)c3c(F)cccc3F)c(C(=O)O)s2)cc1 [compound 53470433] | 11.5 | 35.1 | 1.64
13 | CC(C)c1ccc(-c2cc(NC(=O)c3cc4ccccc4o3)c(C(=O)O)s2)cc1 [compound 53470434] | 42.9 | 47.2 | 2.71
14 | CC(C)(C)c1ccc(-c2cc(NC(=O)c3cccc(F)c3)c(C(=O)O)s2)cc1 [compound 53470435] | 19.9 | 21.1 | 2.7
15 | Cc1ccc(-c2cc(NC(=O)c3cc4ccccc4o3)c(C(=O)O)s2)cc1 [compound 53470436] | > 100 | 94.6 | 20
16 | CC(C)c1ccc(-c2cc(NC(=O)c3c(F)cccc3F)c(C(=O)O)s2)cc1 [compound 53470439] | 7.09 | 32.4 | 1.27
17 | O=C(O)c1sc(-c2ccc(C(F)(F)F)cc2)cc1NC(=O)c1c(F)cccc1F [compound 53470440] | 23.7 | 44.8 | 3.8
18 | Cc1ccc(-c2cc(NC(=O)c3cccc(F)c3)c(C(=O)O)s2)cc1 [compound 53470441] | 53.7 | 43.9 | 7.21
19 | COc1ccc(-c2cc(NC(=O)c3cc4ccccc4o3)c(C(=O)O)s2)cc1 [compound 53470443] | > 100 | 44.8 | 8.36
20 | CC(C)c1ccc(-c2cc(NC(=O)c3cccc(F)c3)c(C(=O)O)s2)cc1 [compound 53470444] | 24.8 | 37.6 | 2.81
21 | COc1ccc(-c2cc(NC(=O)c3cccc(F)c3)c(C(=O)O)s2)cc1 [compound 53470445] | > 100 | 44.8 | 8.36
22 | COc1ccc(-c2cc(NC(=O)c3ccc(Br)o3)c(C(=O)O)s2)cc1 [compound 53470446] | 11.1 | 50.5 | 1.24
23 | O=C(O)c1sc(-c2ccc(OC(F)(F)F)cc2)cc1NC(=O)c1c(F)cccc1F [compound 53495055] | 13 | 51 | 1.35
24 | O=C(Nc1cc(-c2ccc(OC(F)(F)F)cc2)sc1C(=O)O)c1cccc(F)c1 [compound 53495056] | > 100 | 52.1 | > 5
25 | O=C(Nc1cc(-c2ccc(OC(F)(F)F)cc2)sc1C(=O)O)c1ccc(Br)o1 [compound 53495057] | 6.39 | 33.6 | 1.17
26 | O=C(Nc1cc(-c2ccc(OC(F)(F)F)cc2)sc1C(=O)O)c1cc2ccccc2o1 [compound 53495058] | > 100 | 40.6 | 3.83
